Reference: ChEMBL document CHEMBL2440076, “New triarylpyrazoles as broad-spectrum anticancer agents: design, synthesis, and biological evaluation” (Eur J Med Chem, 2013)
pIC50: −log10 of the molar value.

Key:
BT-549 = test: Growth inhibition of human BT549 cells assessed as cell growth at 10 uM after 48 hrs by sulforhodamine B assay; format: functional; conditions: BT-549, 48 h, read-out: Activity
PC-3 = test: Growth inhibition of human PC3 cells assessed as cell growth at 10 uM after 48 hrs by sulforhodamine B assay; format: functional; conditions: PC-3, 48 h, read-out: Activity
CAKI-1 = test: Growth inhibition of human CAKI-1 cells assessed as cell growth at 10 uM after 48 hrs by sulforhodamine B assay; format: functional; conditions: CAKI-1, 48 h, read-out: Activity
[1] = Growth inhibition of human HCC2998 cells after 48 hrs by sulforhodamine B assay; format: functional; conditions: HCC 2998, 48 h
NCI-H23 [2] = test: Growth inhibition of human NCI-H23 cells after 48 hrs by sulforhodamine B assay; format: functional; conditions: NCI-H23, 48 h
NCI-H226 = test: Growth inhibition of human NCI-H226 cells after 48 hrs by sulforhodamine B assay; format: functional; conditions: NCI-H226, 48 h
HOP-62 [3] = test: Growth inhibition of human HOP62 cells after 48 hrs by sulforhodamine B assay; format: functional; conditions: HOP-62, 48 h
MOLT-4 = test: Growth inhibition of human MOLT4 cells after 48 hrs by sulforhodamine B assay; format: functional; conditions: MOLT-4, 48 h
K562 = test: Growth inhibition of human K562 cells after 48 hrs by sulforhodamine B assay; format: functional; conditions: K562, 48 h
SK-OV-3 = test: Growth inhibition of human SKOV3 cells assessed as cell growth at 10 uM after 48 hrs by sulforhodamine B assay; format: functional; conditions: SK-OV-3, 48 h, read-out: Activity
[4] = Growth inhibition of human NCI-ADR-RES cells assessed as cell growth at 10 uM after 48 hrs by sulforhodamine B assay; format: functional; conditions: read-out: Activity
MDA-MB-435 = test: Growth inhibition of human MDA-MB-435 cells assessed as cell growth at 10 uM after 48 hrs by sulforhodamine B assay; format: functional; conditions: MDA-MB-435, 48 h, read-out: Activity
LOX IMVI [5] = test: Growth inhibition of human LOXIMVI cells assessed as cell growth at 10 uM after 48 hrs by sulforhodamine B assay; format: functional; conditions: read-out: Activity
U-251 = test: Growth inhibition of human U251 cells assessed as cell growth at 10 uM after 48 hrs by sulforhodamine B assay; format: functional; conditions: U-251, 48 h, read-out: Activity
SF-268 [6] = test: Growth inhibition of human SF268 cells assessed as cell growth at 10 uM after 48 hrs by sulforhodamine B assay; format: functional; conditions: SF-268, 48 h, read-out: Activity
COLO 205 = test: Growth inhibition of human COLO205 cells assessed as cell growth at 10 uM after 48 hrs by sulforhodamine B assay; format: functional; conditions: COLO 205, 48 h, read-out: Activity
NCI-H522 = test: Growth inhibition of human NCI-H522 cells assessed as cell growth at 10 uM after 48 hrs by sulforhodamine B assay; format: functional; conditions: NCI-H522, 48 h, read-out: Activity
NCI-H23 [7] = test: Growth inhibition of human NCI-H23 cells assessed as cell growth at 10 uM after 48 hrs by sulforhodamine B assay; format: functional; conditions: NCI-H23, 48 h, read-out: Activity
NCI-H322M = test: Growth inhibition of human NCI-H322M cells assessed as cell growth at 10 uM after 48 hrs by sulforhodamine B assay; format: functional; conditions: read-out: Activity
HOP-92 = test: Growth inhibition of human HOP92 cells assessed as cell growth at 10 uM after 48 hrs by sulforhodamine B assay; format: functional; conditions: HOP-92, 48 h, read-out: Activity
MCF7 = test: Growth inhibition of human MCF7 cells after 48 hrs by sulforhodamine B assay; format: functional; conditions: MCF7, 48 h
MDA-MB-231 = test: Growth inhibition of human MDA-MB-231 cells after 48 hrs by sulforhodamine B assay; format: functional; conditions: MDA-MB-231, 48 h
UO-31 = test: Growth inhibition of human UO31 cells after 48 hrs by sulforhodamine B assay; format: functional; conditions: UO-31, 48 h
OVCAR-5 = test: Growth inhibition of human OVCAR5 cells after 48 hrs by sulforhodamine B assay; format: functional; conditions: OVCAR-5, 48 h
IGROV-1 = test: Growth inhibition of human IGROV1 cells after 48 hrs by sulforhodamine B assay; format: functional; conditions: IGROV-1, 48 h
UACC-62 = test: Growth inhibition of human UACC62 cells after 48 hrs by sulforhodamine B assay; format: functional; conditions: UACC-62, 48 h
SK-MEL-28 = test: Growth inhibition of human SK-MEL-28 cells after 48 hrs by sulforhodamine B assay; format: functional; conditions: SK-MEL-28, 48 h
SK-MEL-2 = test: Growth inhibition of human SK-MEL-2 cells after 48 hrs by sulforhodamine B assay; format: functional; conditions: SK-MEL-2, 48 h
Malme-3M = test: Growth inhibition of human MALME-3M cells after 48 hrs by sulforhodamine B assay; format: functional
LOX IMVI [8] = test: Growth inhibition of human LOXIMVI cells after 48 hrs by sulforhodamine B assay; format: functional
SF-268 [9] = test: Growth inhibition of human SF268 cells after 48 hrs by sulforhodamine B assay; format: functional; conditions: SF-268, 48 h
SF-295 = test: Growth inhibition of human SF295 cells after 48 hrs by sulforhodamine B assay; format: functional, cell-based; conditions: SF-295, 48 h
HOP-62 [10] = test: Growth inhibition of human HOP62 cells assessed as cell growth at 10 uM after 48 hrs by sulforhodamine B assay; format: functional; conditions: HOP-62, 48 h, read-out: Activity
HL-60(TB) = test: Growth inhibition of human HL-60(TB) cells assessed as cell growth at 10 uM after 48 hrs by sulforhodamine B assay; format: functional; conditions: HL-60, 48 h, read-out: Activity
[11] = read-out: LC50 (the source's name)

Work on `O=C(Nc1cccc(-n2cc(-c3ccncc3)c(-c3ccc(Cl)c(O)c3)n2)c1)Nc1cc(C(F)(F)F)cc(C(F)(F)F)c1` yielded a growth at 10 µM (BT-549) of -36%, a growth at 10 µM (PC-3) of -32.4% and a growth at 10 µM (CAKI-1) of 8.94%. It also gave a GI50 [1] of 1030 nM, a TGI [1] of 2410 nM and a CC50 [1, 11] of 7160 nM. It also gave a GI50 (NCI-H23 [2]) of 1020 nM, an LC50 (NCI-H23 [2]) of 18200 nM and a TGI (NCI-H23 [2]) of 3270 nM. It also gave a GI50 (NCI-H226) of 1240 nM, a TGI (NCI-H226) of 6120 nM and a CC50 (NCI-H226; [11]) of 37600 nM. The GI50 (HOP-62 [3]) was 964 nM, the TGI (HOP-62 [3]) was 1980 nM and the CC50 (HOP-62 [3]; [11]) was 4070 nM. The GI50 (MOLT-4) was 1150 nM, the TGI (MOLT-4) was 4360 nM and the CC50 (MOLT-4; [11]) was > 50000 nM. For the same compound, the GI50 (K562) was 433 nM, the TGI (K562) was 3930 nM and the CC50 (K562; [11]) was > 50000 nM. It also gave a growth at 10 µM (SK-OV-3) of -24.4%, a growth at 10 µM [4] of 4.72% and a growth at 10 µM (MDA-MB-435) of -31.1%. The growth at 10 µM (LOX IMVI [5]) was -94.1%, the growth at 10 µM (U-251) was -83.8% and the growth at 10 µM (SF-268 [6]) was -36.4%. The growth at 10 µM (COLO 205) was -97.3%, the growth at 10 µM (NCI-H522) was -50.1% and the growth at 10 µM (NCI-H23 [7]) was -7.93%. It also gave a growth at 10 µM (NCI-H322M) of 5.11%, a growth at 10 µM (HOP-92) of -45.8% and a GI50 (MCF7) of 540 nM. The LC50 (MCF7) was 31500 nM, the TGI (MCF7) was 5790 nM and the GI50 (MDA-MB-231) was 739 nM. It also gave an LC50 (MDA-MB-231) of 3720 nM, a TGI (MDA-MB-231) of 1660 nM and a GI50 (UO-31) of 647 nM. For the same compound, the TGI (UO-31) was 1900 nM, the CC50 (UO-31; [11]) was 6600 nM and the GI50 (OVCAR-5) was 875 nM. For the same compound, the LC50 (concentration killing 50% of cells) (OVCAR-5) was 4700 nM, the TGI (OVCAR-5) was 2030 nM and the GI50 (IGROV-1) was 896 nM. The LC50 (concentration killing 50% of cells) (IGROV-1) was 38200 nM, the TGI (IGROV-1) was 3550 nM and the GI50 (UACC-62) was 749 nM. For the same compound, the LC50 (50% lethal concentration) (UACC-62) was 8460 nM, the TGI (UACC-62) was 2190 nM and the GI50 (SK-MEL-28) was 796 nM. For the same compound, the LC50 (SK-MEL-28) was 3090 nM, the TGI (SK-MEL-28) was 1570 nM and the GI50 (SK-MEL-2) was 1250 nM. For the same compound, the LC50 (50% lethal concentration) (SK-MEL-2) was 14100 nM, the TGI (SK-MEL-2) was 3030 nM and the GI50 (Malme-3M) was 939 nM. The LC50 (concentration killing 50% of starting cells) (Malme-3M) was 23500 nM, the TGI (Malme-3M) was 3030 nM and the GI50 (LOX IMVI [8]) was 712 nM. For the same compound, the LC50 (LOX IMVI [8]) was 2750 nM, the TGI (LOX IMVI [8]) was 1400 nM and the GI50 (SF-268 [9]) was 846 nM. The TGI (SF-268 [9]) was 2690 nM, the CC50 (SF-268 [9]; [11]) was 20500 nM and the GI50 (SF-295) was 618 nM. It also gave a pIC50 (SF-295) of 6.21, a TGI (SF-295) of 1650 nM and a CC50 (SF-295; [11]) of 4390 nM. It also gave a growth at 10 µM (HOP-62 [10]) of -86.1% and a growth at 10 µM (HL-60(TB)) of -18.3%.
